Reference: US20260159519A1, “IMIDAZOPYRIDAZINE SUBSTITUTED BENZENE RING DERIVATIVE, PREPARATION METHOD, PHARMACEUTICAL COMPOSITION AND USE” (SHANGHAI SIMR BIOTECHNOLOGY CO., LTD., priority 2022, published 2026)

Tested on: Chinese hamster ovary cells (CHO-WBL cells)
Test: In vitro micronucleus assay
Format: cell-based
Settings: 3-hour treatment with S9, 3-hour and 24-hour treatment without S9; overall judgment
Description: The experimental design is based on the experimental purpose and follows the following experimental design guidelines: • (1) OECD Guidelines for the Testing of Chemicals 487, In Vitro Mammalian Cell Micronucleus Test, revised in 2016; • (2) ICH S2 (R1): Guideline on Genotoxicity Testing and Data Interpretation for Pharmaceuticals Intended for Human Use, validated in November 2011.
Experimental system and selection rationale: Chinese hamster ovary cells (CHO-WBL cells) were used as an experimental system in this experiment. The cell line has a karyotype containing 21 chromosomes and a growth cycle of 12 to 13 hours. CHO-WBL cells were originally derived from Dr. S. Wolff at the University of California in San Francisco, USA, then cloned in the laboratory of Dr. A. Bloom at Columbia University in New York, and cloned again by Dr. S. Galloway at Litton Bionetics Laboratory in Maryland. The cell stock solution was stored in liquid nitrogen. The karyotype of each batch of cell stock solution was identified, and tests confirmed that it was free from mycoplasma contamination. The number of passages after cell cloning will not exceed 15. Chinese hamster ovary cells were chosen because the cell line is recommended for use in OECD Guidelines for the Testing of Chemicals 487 and has been proven to be sensitive to a variety of clastogens/aneugens (Marilyn J. et al., 2006).
Medium and cell growth conditions: Chinese hamster ovary cells were cultured in McCoy's 5A complete medium (McCoy's 5A complete medium supplemented with 10 vt % fetal bovine serum, 2 mM GlutaMAX™ medium, 100 units/mL penicillin, and 100 μg/mL streptomycin), and grown in a standard environment (a high-humidity incubator with a temperature of 37° C. and a CO2 concentration of 5%). The day before administration, CHO-WBL cells in exponential growth phase were inoculated onto an eight-well cell culture slide at a density of 8×10^3 cells/400 μL McCoy's 5A complete medium/well.
Metabolic activation system: The in vitro metabolic activation system (Maron and Ames, 1983) contains a rat liver microsomal homogenate induced by β-naphthoflavone and phenobarbital (referred to as S9) and an NADPH-generating system (i.e., NADP disodium and isocitric acid trisodium). S9 was purchased from CHI Scientific, Inc. and stored in a −75° C. refrigerator prior to use. Preparation method for S9 homogenate: Male Sprague Dawley rats were intraperitoneally injected with a single dose of p-naphthoflavone and phenobarbital, followed by material preparation.
Preparation of S9 metabolic activation system: NADP disodium salt and isocitric acid trisodium salt were first dissolved in serum-free medium to prepare a core solution, which was then filtered through a 0.22 µm filter to sterilize. Immediately before use, the S9 homogenate was thawed, and the components of the S9 metabolic activation system were mixed in the proportions shown in Table 2 below.
Dose exploration experiment: In the dose exploration experiment, 8 administration concentrations were established in each administration treatment series. For each concentration of the test substance, 1 well of cells was set up. According to the ICH S2 (R1) guidelines, when not limited by the solubility of the test substance in the solvent/medium or the cytotoxicity of the test substance, the recommended maximum concentration is 1 mM or 0.5 mg/mL, whichever is lower. However, when limited by solubility, the test maximum concentration is the minimum concentration at which a small amount of precipitate is visible in the medium under the microscope. To ensure that the upper limit of solubility in the medium can be reached, up to 4 concentrations with visible precipitate can be tested.

CCN1C(=O)COc2cc(-c3cc(-c4cnnc5c4ncn5CC)ccc3F)c(OC)cc21 [Example 31, 4-Ethyl-7-(5-(7-ethyl-7H-imidazo[4,5-c]pyridazin-4-yl)-2-fluorophenyl)-6-methoxy-2H-benzo[b][1,4]oxazin-3(4H)-one]
Results of in vitro micronucleus assay: Negative

COc1cc2c(cc1-c1cc(-c3cnnc4c3ncn4C(C)C)ccc1F)OCC(=O)N2C [Example 36, 7-(2-Fluoro-5-(7-isopropyl-7H-imidazo[4,5-c]pyridazin-4-yl)phenyl)-6-methoxy-4-methyl-2H-benzo[b][1,4]oxazin-3(4H)-one]
Results of in vitro micronucleus assay: Negative

CCn1cnc2c(-c3ccc(F)c(-c4cc5c(cc4OC)N(C)C(=O)CO5)c3)cnnc21 [Example 42, 7-(5-(7-Ethyl-7H-imidazo[4,5-c]pyridazin-4-yl)-2-fluorophenyl)-6-methoxy-4-methyl-2H-benzo[b][1,4]oxazin-3(4H)-one]
Results of in vitro micronucleus assay: Negative

CCn1cnc2c(-c3ccc(F)c(-c4cc5oc(=O)n(C)c5cc4OC)c3)cnnc21 [Example 87, 6-(5-(7-Ethyl-7H-imidazo[4,5-c]pyridazin-4-yl)-2-fluorophenyl)-5-methoxy-3-methylbenzo[d]oxazol-2(3H)-one]
Results of in vitro micronucleus assay: Negative

CCn1cnc2c(-c3ccc(F)c(-c4cc5c(cc4OC)N(C)C(=O)C5)c3)cnnc21 [Example 161, 5-(5-(7-Ethyl-7H-imidazo[4,5-c]pyridazin-4-yl)-2-fluorophenyl)-6-methoxy-1-methyldihydro-2-one]
Results of in vitro micronucleus assay: Negative
